The test system of data set [1] is Vero SF cells. Nature of the data set: Cytotoxicity assay (CCK8, WST-8). The protocol:
The Vero SF cells line is recommended by EFSA to assess the toxigenic potential of Bacillus species used in animal nutrition ([EFSA, 2014]). Cells were cultured in Dulbecco’s modified Eagle’s medium supplemented with 10% FCS, 1% glutamine, and 1% penicillin-streptomycin. After 48 h, cell culture medium was replaced by fresh medium containing the tested compounds in various concentrations.
Cytotoxicity was determined through a commercial kit from SIGMA Aldrich (Saint-Louis, United States) named Cell Counting kit 8 (CCK8). This test is based on the water-soluble tetrazolium salt (WST-8) reduction by the dehydrogenase of the living cells only inducing the production of a yellow color formazan dye which is directly proportional to the number of cells. Twenty-four hours after addition the compounds, the WST-8 was added to the medium (100 μL/mL). After 2h incubation, absorption at […] was measured in a microplate-reader (Microplates reader SpectraMax® iD3, Molecular Devices, San Jose, United States) and values were expressed as percent of control.
As explained above, since some of the lipopeptides have limited solubility in aqueous solutions, prior to their cytotoxicity testing, the effect of the DMSO at the levels used to solubilize the lipopeptides, was assessed. […]
In general terms: Formazan colour is commonly taken as a measure of viable cells.

Data set [2] concerns Salmonella enterica NCTC 5188. Kind of data set: Antibacterial susceptibility, broth microdilution MIC. Type of data set: cell-based. The conditions noted are these: NCTC5188, S. enterica, 24 h. On the technique in general: Dilution methods test growth across graded concentrations, often in twofold steps.
Data set [3] concerns Bacillus cereus MR59. The data set is described as above. Type of data set: cell-based. The conditions noted are these: 24 h. The protocol: (§1) The antibacterial susceptibility testing was performed following the broth microdilution methodology, as described previously ([Schwalbe et al., 2007]), against both Gram-negative and Gram-positive foodborne pathogens and spoilage bacteria. The bacteria used were: Pseudomonas aeruginosa NCTC 10332, Salmonella enterica NCTC 5188, Escherichia coli K-12, Bacillus cereus MR59, Listeria monocytogenes 10403S, Carnobacterium divergens NCFB 2763, Leuconostoc mesenteroides NCIMB 08023, and Brochothrix thermosphacta NCDO 1676.
(§2) Two-fold dilutions were performed and 100 μL of each dilution was placed in each column of a flat bottomed 96-well plate. One column of the plate contained only the growth medium and served as the positive control while in another column contained 200 μL of the growth medium with the highest concentration of the lipopeptide tested (1,000 mg/L) and served as the negative control. Apart from the column that served as the negative control, the rest of the wells were inoculated with 100 μL of the bacterial culture tested. For the bacterial suspension preparation, cultures were incubated overnight in the appropriate medium (MHB or TSB). Bacterial density was adjusted to 0.5 McFarland and suspensions were subsequently diluted 1000 times using the growth test medium. The 96-well plates were then incubated at either 30or 37°C, depending on the optimal growth temperature of each microorganism, for 24 h and the OD620nm was assessed. The minimum inhibitory concentration (MIC) was defined as the lowest concentration of the antimicrobial agent tested that prevented any discernible growth after 24 h incubation.

In data set [4] the test system is Brochothrix thermosphacta NCDO 1676. The description is as above. In kind it is cell-based. The following applies: food preservatives, 24 h. The protocol:
as §1, §2

Data set [5] has as its system Carnobacterium divergens NCFB 2763. The description is as above. Type of data set: cell-based. The conditions noted are these: C. divergens. How it is done: as §1, §2
The subject of data set [6] is Escherichia coli K-12. The description is as above. Type of data set: cell-based. The conditions noted are these: E. coli K-12, broth microdilution, 24 h. The protocol:
as §1, §2

Data set [7] concerns Leuconostoc mesenteroides NCIMB 08023. The data set is described as above. In kind it is cell-based. The conditions noted are these: 24 h. How it is done: as §1, §2
The subject of data set [8] is Listeria monocytogenes 10403S. The data set is described as above. In kind it is cell-based. The conditions noted are these: L. monocytogenes, 24 h. The protocol: as §1, §2
The test system of data set [9] is Pseudomonas aeruginosa NCTC 10332. The data set is described as above. In kind it is cell-based. The following applies: 24 h. How it is done: as §1, §2
Data set [10] relates to Gram-positive bacteria. Nature of the data set: Antibacterial broth microdilution MIC, summary over Gram-positive strains. In kind it is cell-based. The following applies: range over the Gram-positive strains; read-out: MICs for Gram-positive bacteria.
For data set [11], the system named is Escherichia coli. Details: method as in Dhanarajan et al., 2016. The following applies: purified surfactin homologues; ref Dhanarajan et al., 2016; cited from earlier work.
Data set [12] relates to Candida krusei ATCC 6258. Kind of data set: Antifungal susceptibility against yeast, broth microdilution in RPMI-1640. Type of data set: cell-based. The conditions noted are these: for MIC: Pichia kudriavzevii, ATCC6258, C. krusei, RPMI-1640 liquid media. How it is done:
The antifungal susceptibility test against yeasts was performed according to the broth microdilution method, as described previously ([Urbañski et al., 2002]; [Schwalbe et al., 2007]). Candida krusei ATCC 6258 was used as the quality control organism, to verify that antifungal concentrations were prepared properly. In addition, amphotericin B, an effective antifungal antibiotic produced by Streptomyces nodosus and part of the WHO List (World Health Organization) of Essential Medicines, was used as a reference compound. The test medium used was RPMI-1640 (with glutamine, without bicarbonate and with a pH indicator) broth with [3-(N-morpholino)]-propanesulfonic acid (MOPS) buffer. All tests were performed in U-shaped 96-well plates. Three technical replicates of each assay were carried out on the same day with the same culture and chemical compound with the aforementioned experiment repeated also in triplicate on different days using different cultures (biological replicates) resulting in a total of nine replicates for each assay. The yeasts tested were Zygosaccharomyces bailli NCYC 464 and Debaryomyces hansenii NCYC 102.

Data set [13] has as its system Paecilomyces variotii. Nature of the data set: Antifungal susceptibility against filamentous fungi, broth microdilution. Type of data set: cell-based. How it is done: (§3) In this set of experiments, Candida krusei ATCC 6258 and amphotericin B were used to perform quality control tests for validation. As mentioned above, the test medium used was RPMI-1640 broth with MOPS buffer. Tests were performed in U-shaped 96-well plates in triplicates and the OD450nm was recorded after 7 days of incubation at 30°C. The fungi tested were Rhizopus stolonifer IMI 017314 and Paecilomyces variotii and Byssochamys fulva IMI 040021.

In data set [14] the test system is Rhizopus stolonifer IMI 017314. Described as above. In kind it is cell-based. How it is done:
as §3

For data set [15], the system named is Byssochamys fulva IMI 040021. Described as above. Type of data set: cell-based, Byssochlamys fulva. How it is done:
as §3

The subject of data set [16] is Caco-2 cells. The conditions noted are these: cited from earlier work; for IC50: Caco-2 cells, ref Zhao et al.; for IC50 cytotoxicity group, Caco cells: published IC50, MTT, ref literature review and EFSA database (Figure 4).
The test system of data set [17] is Vero cells. The following applies: cited from earlier work; for IC50 cytotoxicity group, Vero cells: published IC50, MTT, ref literature review and EFSA database (Figure 4).
Data set [18] concerns Caco-2 cells.
The test system of data set [19] is C. divergens. Kind of data set: Nisin-lipopeptide combinations, broth microdilution checkerboard panel. The conditions noted are these: regardless of the surfactin concentrations; data not shown. Type of data set: cell-based, Carnobacterium divergens. An excerpt: For testing the antibacterial activity by combining nisin and lipopeptides, the broth microdilution assay described above was used, following the broth microdilution checkerboard panel ([Schwalbe et al., 2007]).

Data set [20] relates to Caco-2 cells. Kind of data set: Cytotoxicity assay (CCK8, WST-8). The conditions noted are these: estimated IC50 of this study, 24 h of contact.
Data set [21] has as its system R. stolonifer. The arrangement: method as in Liu et al., 2014. The following applies: ref Liu et al., 2014; cited from earlier work.
Where [22] appears, read: nisin alone, lipopeptide alone, or lipopeptide with nisin at fixed 10 mg/L.

Converted amounts (≈) assume the structure as drawn. “And” between values parts separate entries of the source, which are not always exact repeats. Equal values may be shown once. Read-outs that look alike come from different tables or passages of the source. Where only a bound is given, the exact number is not on record here.

The source of these data is paper PMC7829355, “Antimicrobial Activity of Lipopeptide Biosurfactants Against Foodborne Pathogen and Food Spoilage Microorganisms and Their Cytotoxicity” (Frontiers in Microbiology, 2021).

Regarding fengycin [Fengycin (F)], the “cytotoxicity compared to nisin (E234)” value in [1] was “less cytotoxic”.
With `O=C(O)CN(CCN(CC(=O)O)CC(=O)O)CC(=O)O` [EDTA, ethylenediaminetetraacetic acid], the MIC in data set [2] came out at 14600 µg/mL (≈ 50000 µM); in data set [3] (Bacillus cereus, MR59, B. cereus, read-out: MIC), 228 µg/mL (≈ 780 µM); in data set [4] (Brochothrix thermosphacta, NCDO1676, B. thermosphacta, read-out: MIC), 114 µg/mL (≈ 390 µM); in data set [5] (Carnobacterium divergens, NCFB2763, food preservatives, broth microdilution, 24 h, read-out: MIC) it was 55.6 µg/mL; in data set [6] (Escherichia coli, K12, read-out: MIC) it was 14600 µg/mL (≈ 50000 µM); in [7] (Leuconostoc mesenteroides, NCIMB08023, L. mesenteroides, read-out: MIC), 114 µg/mL (≈ 390 µM). The MIC in data set [8] (Listeria monocytogenes, 10403S, read-out: MIC) is 228 µg/mL (≈ 780 µM); in [9] (Pseudomonas aeruginosa, NCTC10332, P. aeruginosa, read-out: MIC), 7310 µg/mL (≈ 25000 µM); in data set [10] it was 190 µM to 780 µM and 55.6 µg/mL to 228 µg/mL.
With surfactin C15, the MICs in data set [11] was 60 mg/L.
In the case of `C[C@@H]1[C@H](O)[C@@H](C)/C=C/C=C/C=C/C=C/C=C/C=C/C=C/[C@H](O[C@@H]2O[C@H](C)[C@@H](O)[C@H](N)[C@@H]2O)C[C@@H]2O[C@](O)(C[C@@H](O)C[C@@H](O)[C@H](O)CC[C@@H](O)C[C@@H](O)CC(=O)O[C@H]1C)C[C@H](O)[C@H]2C(=O)O` [Amphotericin B, amphotericin B], the MIC in [12] (24 h growth, read-out: MIC (mg/L) 24h) was 0.5 mg/L (≈ 0.541 µM); in data set [12] (48 h growth, read-out: MIC (mg/L) 48h), 0.5 mg/L (≈ 0.541 µM); in [13] (Paecilomyces variotii, 168 h, 7 days of growth, RPMI-1640 liquid media, read-out: P. variotii MIC) it was 0.06 µg/mL (≈ 0.0649 µM); in [14] (Rhizopus stolonifer, IMI017314, 168 h, 7 days of growth, RPMI-1640 liquid media, read-out: R. stolonifer MIC), 0.5 µg/mL (≈ 0.541 µM); in [15] (Paecilomyces fulvus, IMI040021, 168 h, 7 days of growth, RPMI-1640 liquid media, read-out: B. fulva MIC), 0.06 µg/mL (≈ 0.0649 µM).
In general, IC50 refers to the concentration needed to halve the response being measured. As to iturin A, the IC50 in data set [16] (2018) is 42 µg/mL; in data set [16] (2019), 28 µg/mL; in [17] (Vero cells, ref EFSA Panel on Additives and Products or Substances used in Animal Feed [FEEDAP], 2017), “around 16 mg/L”. Moreover, the “IC50 cytotoxicity group, Caco cells” value in [16] is “group 2 (group 2 with moderate cytotoxicity with IC50s between 10 and 100 mg/L)”. In addition, in [17], the “IC50 cytotoxicity group, Vero cells” value was “group 2 (group 2 with moderate cytotoxicity with IC50s between 10 and 100 mg/L)”.
With mycosubtilin, the “cytotoxicity compared to nisin (E234)” value in [18] is “three times less cytotoxic”.
nisin: the MIC is 6.71 µg/mL in data set [3] (B. cereus); 0.10 to 0.20 µg/mL in data set [4] (B. thermosphacta); 3.35 µg/mL in data set [5] (food preservatives, broth microdilution, 24 h); 1000 µM in data set [5] (nisin); more than 107.3 µg/mL in data set [6]; 1.68 µg/mL in data set [7] (L. mesenteroides). The MIC in data set [8] is 6.71 µg/mL; in data set [9] (P. aeruginosa) it was more than 107.3 µg/mL. In addition, in data set [12] (setting [22]), the “Lipopeptide MIC (mg/L) C. krusei” value was more than 125 mg/L. In addition, the “Lipopeptide MIC (mg/L) P. variotii” value in [13] (setting [22]) is given as more than 125 mg/L. In addition, the “Lipopeptide MIC (mg/L) R. stolonifer” value in [14] (setting [22]) is more than 125 mg/L. For the same compound, the “Lipopeptide MIC (mg/L) B. fulva” value in data set [15] (setting [22]) is more than 125 mg/L. Further, the “MIC of nisin for C. divergens when combined with surfactin” value in data set [19] stood at 3.35 µg/mL. For the same compound, the “IC50 cytotoxicity group, Vero cells” value in data set [1] (estimated IC50 of this study, 24 h of contact) is “group 1 (group 1 of molecules with low cytotoxicity, IC50 above 100 mg/L)”. In data set [20], the “IC50 cytotoxicity group, Caco cells” value is given as “group three (group three with significant cytotoxicity with IC50 lower than 10 mg/L)”.
On to iturin, for which the “concentration at which growth of R. stolonifer is inhibited” value in data set [21] is on record as 100 mg/L.
As to `C=O` [formaldehyde (E240), formaldehyde], the “IC50 cytotoxicity group, Caco cells” value in data set [16] is reported as “group three (group three with significant cytotoxicity with IC50 lower than 10 mg/L)”. For the same compound, the “IC50 cytotoxicity group, Vero cells” value in [17] was “group 3 (group three with significant cytotoxicity with IC50 lower than 10 mg/L)”.
`Cc1ccc(C(C)C)cc1O` [carvacol]: the “IC50 cytotoxicity group, Caco cells” value in data set [16] was “group 2 (group 2 with moderate cytotoxicity with IC50s between 10 and 100 mg/L)”. For the same compound, the “IC50 cytotoxicity group, Vero cells” value in [17] is “group 2 (group 2 with moderate cytotoxicity with IC50s between 10 and 100 mg/L)”.
